# Source: patent US9856216B2, “Compounds as TNIK, IKKε and TBK1 inhibitors and pharmaceutical composition comprising same” (GREEN CROSS CORPORATION, priority 2015, dated 2018)
# Molecular target: T1, TNIK (Homo sapiens, UniProt Q9UKE5)
# T1 construct: purchased Promega V4158
# Assay: ADP-Glo Kinase Assay, inhibition activity on TNIK
# Assay type: biochemical
# Conditions: not given
# Procedure: The inhibition activities on TNIK, IKKε and TBK1 were measured by a luminometer, TNIK/IKKε/TBK1 Kinase Enzyme System (Promega, Ca# V4158; Invitrogen, PR8031B, Promega, Ca# V3991) and ADP-Glo Kinase Assay using ADP-Glo™ Kinase Analysis Kit (Promega, Ca# V9101) and a kinase reaction buffer [40 mM Tris(pH 7.5), 20 mM MgCl2, 0.1 mg/mL BSA] in accordance with the manufacturer's protocol.
# T1 sequence (Q9UKE5 1-367 limits assumed): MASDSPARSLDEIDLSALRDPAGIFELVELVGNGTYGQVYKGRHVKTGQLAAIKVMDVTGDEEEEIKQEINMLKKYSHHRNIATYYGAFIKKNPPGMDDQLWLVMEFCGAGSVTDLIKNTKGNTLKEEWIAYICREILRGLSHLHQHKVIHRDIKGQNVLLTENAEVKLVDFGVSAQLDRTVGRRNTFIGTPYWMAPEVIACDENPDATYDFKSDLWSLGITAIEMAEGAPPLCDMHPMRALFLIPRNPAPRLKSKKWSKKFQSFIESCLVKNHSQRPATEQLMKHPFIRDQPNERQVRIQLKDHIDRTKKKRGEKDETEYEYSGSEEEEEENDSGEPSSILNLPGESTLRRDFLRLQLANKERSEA
row,Compound,TNIK (μM)
1,"O=C(Nc1ccc(-c2cccc(O)c2O)c2c1C(=O)NC2)c1ccc(F)cc1 [Example 189, N-(7-(2,3-dihydroxyphenyl)-3-oxoisoindolin-4-yl)-4-fluorobenzamide]",Insoluble
2,"Cc1nc2cccc(-c3ccc(NC(=O)c4ccc(F)cc4)c4c3CNC4=O)c2o1 [Example 194, 4-Fluoro-N-(7-(2-methylbenzo[d]oxazol-7-yl)-3-oxoisoindolin-4-yl)benzamide]",Insoluble
3,"O=C(Nc1ccc(-c2ccc(F)nc2)c2c1C(=O)NC2)c1ccccc1 [Example 199, N-(7-(6-fluoropyridin-3-yl)-3-oxoisoindolin-4-yl)benzamide]",Insoluble
4,"COc1ccc(-c2ccc(NC(=O)c3ccccc3)c3c2CNC3=O)cn1 [Example 200, N-(7-(6-methoxypyridin-3-yl)-3-oxoisoindolin-4-yl)benzamide]",Insoluble

# Same assay, conditions: read-out: TNIK
row,Compound,IC50
1,"CCOc1cccc(-c2ccc(NC(=O)c3ccccc3)c3c2CNC3=O)c1 [Example 177, N-(7-(3-ethoxyphenyl)-3-oxoisoindolin-4-yl)benzamide]",8100 nM
2,"COc1ccc(OC)c(-c2ccc(NC(=O)c3ccccc3)c3c2CNC3=O)c1 [Example 178, N-(7-(2,5-dimethoxyphenyl)-3-oxoisoindolin-4-yl)benzamide]",> 20000 nM
3,"O=C(Nc1ccc(-c2ccc(Cl)cc2)c2c1C(=O)NC2)c1ccccc1 [Example 179, N-(7-(4-chlorophenyl)-3-oxoisoindolin-4-yl)benzamide]",> 20000 nM
4,"O=C(Nc1ccc(-c2cccc(Cl)c2)c2c1C(=O)NC2)c1ccccc1 [Example 180, N-(7-(3-chlorophenyl)-3-oxoisoindolin-4-yl)benzamide]",13700 nM
5,"CCOc1ccc(-c2ccc(NC(=O)c3ccccc3)c3c2CNC3=O)cc1 [Example 181, N-(7-(4-ethoxyphenyl)-3-oxoisoindolin-4-yl)benzamide]",> 20000 nM
6,"CCOc1ccccc1-c1ccc(NC(=O)c2ccccc2)c2c1CNC2=O [Example 182, N-(7-(2-ethoxyphenyl)-3-oxoisoindolin-4-yl)benzamide]",2800 nM
7,"N#Cc1ccccc1-c1ccc(NC(=O)c2ccccc2)c2c1CNC2=O [Example 183, N-(7-(2-cyanophenyl)-3-oxoisoindolin-4-yl)benzamide]",1700 nM
8,"CCCCOc1ccc(-c2ccc(NC(=O)c3ccccc3)c3c2CNC3=O)cc1 [Example 184, N-(7-(4-butoxyphenyl)-3-oxoisoindolin-4-yl)benzamide]",> 20000 nM
9,"CN(C)c1ccccc1-c1ccc(NC(=O)c2ccccc2)c2c1CNC2=O [Example 185, N-(7-(2-(dimethylamino)phenyl)-3-oxoisoindolin-4-yl) benzamide]",2800 nM
10,"O=C(Nc1ccc(-c2ccc(OC(F)(F)F)cc2)c2c1C(=O)NC2)c1ccccc1 [Example 186, N-(3-oxo-7-(4-(trifluoromethoxy)phenyl)isoindolin-4-yl) benzamide]",> 20000 nM
11,"COc1cccc(OC)c1-c1ccc(NC(=O)c2ccccc2)c2c1CNC2=O [Example 187, N-(7-(2,6-dimethoxyphenyl)-3-oxoisoindolin-4-yl)benzamide]",2200 nM
12,"CCCc1ccc(-c2ccc(NC(=O)c3ccccc3)c3c2CNC3=O)cc1 [Example 188, N-(3-oxo-7-(4-propylphenyl)isoindolin-4-yl)benzamide]",> 20000 nM
13,"COc1cccc(-c2ccc(NC(=O)c3ccc(F)cc3)c3c2CNC3=O)c1O [Example 190, 4-Fluoro-N-(7-(2-hydroxy-3-methoxyphenyl)-3-oxoisoindolin-4-yl)benzamide]",520 nM
14,"O=C(Nc1ccc(-c2cccs2)c2c1C(=O)NC2)c1ccc(F)cc1 [Example 191, 4-Fluoro-N-(3-oxo-7-(thiophen-2-yl)isoindolin-4-yl)benzamide]",13300 nM
15,"Cc1ccc(C(=O)Nc2ccc(-c3ccccc3)c3c2C(=O)NC3)o1 [Example 192, 5-Methyl-N-(3-oxo-7-phenylisoindolin-4-yl)furan-2-carboxamide]",730 nM
16,"O=C(Nc1ccc(-c2cccc3ncoc23)c2c1C(=O)NC2)c1ccc(F)cc1 [Example 193, N-(7-(benzo[d]oxazol-7-yl)-3-oxoisoindolin-4-yl)-4-fluorobenzamide]",1450 nM
17,"O=C(Nc1ccc(-c2ccc(CN3CCCC3)s2)c2c1C(=O)NC2)c1ccccc1 [Example 195, N-(3-oxo-7-(5-(pyrrolidin-1-ylmethyl)thiophen-2-yl)isoindolin-4-yl)benzamide]",> 20000 nM
18,"O=C(Nc1ccc(-c2ccc(CN3CCCCC3)s2)c2c1C(=O)NC2)c1ccccc1 [Example 196, N-(3-oxo-7-(5-(piperidin-1-ylmethyl)thiophen-2-yl)isoindolin-4-yl)benzamide]",17700 nM
19,"O=C(Nc1ccc(-c2ccc(CN3CCOCC3)s2)c2c1C(=O)NC2)c1ccccc1 [Example 197, N-(7-(5-(morpholinomethyl)thiophen-2-yl)-3-oxoisoindolin-4-yl)benzamide]",> 20000 nM
20,"CC(C)(C)OC(=O)N1CCN(Cc2ccc(-c3ccc(NC(=O)c4ccccc4)c4c3CNC4=O)s2)CC1 [Example 198, tert-Butyl 4-((5-(7-benzamido-1-oxoisoindolin-4-yl)thiophen-2-yl)methyl)piperazine-1-carboxylate]",> 20000 nM
21,"O=C(Nc1ccc(-c2ccccc2)c2c1C(=O)NC2)c1ccccc1Cl [Example 201, 2-Chloro-N-(3-oxo-7-phenylisoindolin-4-yl)benzamide]",15200 nM

row,Compound,IC50
1,"COc1cccc(C(=O)Nc2ccc(-c3ccccc3)c3c2C(=O)NC3)c1 [Example 202, 3-Methoxy-N-(3-oxo-7-phenylisoindolin-4-yl)benzamide]",> 20000 nM
2,"O=C(Nc1ccc(-c2ccccc2)c2c1C(=O)NC2)c1cccs1 [Example 203, N-(3-oxo-7-phenylisoindolin-4-yl)thiophene-2-carboxamide]",350 nM
3,"COc1ccc(C(=O)Nc2ccc(-c3ccc(C(C)=O)cc3)c3c2C(=O)NC3)cc1 [Example 204, N-(7-(4-acetylphenyl)-3-oxoisoindolin-4-yl)-4-methoxy benzamide]",> 20000 nM
4,"O=C(Nc1ccc(-c2ccc(F)cc2)c2c1C(=O)NC2)c1ccccc1 [Example 205, N-(7-(4-fluorophenyl)-3-oxoisoindolin-4-yl)benzamide]",> 20000 nM
5,"N#Cc1ccc(-c2ccc(NC(=O)c3ccccc3)c3c2CNC3=O)cc1 [Example 207, N-(7-(4-cyanophenyl)-3-oxoisoindolin-4-yl)benzamide]",> 20000 nM
6,"N#Cc1ccc(C(=O)Nc2ccc(-c3ccccc3)c3c2C(=O)NC3)cc1 [Example 208, 4-Cyano-N-(3-oxo-7-phenylisoindolin-4-yl)benzamide]",> 20000 nM
7,"Cc1ccc(-c2ccc(NC(=O)c3ccccc3)c3c2CNC3=O)cc1 [Example 209, N-(3-oxo-7-(p-tolyl)isoindolin-4-yl)benzamide]",2800 nM
8,"O=C(Nc1ccc(-c2ccc(C(F)(F)F)cc2)c2c1C(=O)NC2)c1ccccc1 [Example 210, N-(3-oxo-7-(4-(trifluoromethyl)phenyl)isoindolin-4-yl) benzamide]",> 20000 nM
9,"O=C(Nc1ccc(-c2ccccc2)c2c1C(=O)NC2)c1ccncc1 [Example 211, N-(3-oxo-7-phenylisoindolin-4-yl)isonicotinamide]",700 nM
10,"O=C(Nc1ccc(-c2ccccc2)c2c1C(=O)NC2)c1ccco1 [Example 212, N-(3-oxo-7-phenylisoindolin-4-yl)furan-2-carboxamide]",300 nM
11,"O=C(Nc1ccc(-c2ccccc2)c2c1C(=O)NC2)c1cccnc1 [Example 213, N-(3-oxo-7-phenylisoindolin-4-yl)nicotinamide]",600 nM
12,"O=C(Nc1ccc(-c2ccc3ncccc3c2)c2c1C(=O)NC2)c1ccc(F)cc1 [Example 214, 4-Fluoro-N-(3-oxo-7-(quinolin-6-yl)isoindolin-4-yl)benzamide]",> 20000 nM
13,"O=C(Nc1ccc(-c2cccc3ncccc23)c2c1C(=O)NC2)c1ccc(F)cc1 [Example 215, 4-Fluoro-N-(3-oxo-7-(quinolin-5-yl)isoindolin-4-yl)benzamide]",240 nM
14,"O=C(Nc1ccc(-c2ccnc3ccccc23)c2c1C(=O)NC2)c1ccc(F)cc1 [Example 216, 4-Fluoro-N-(3-oxo-7-(quinolin-4-yl)isoindolin-4-yl)benzamide]",160 nM
15,"O=C(Nc1ccc(-c2cccc3cc[nH]c23)c2c1C(=O)NC2)c1ccc(F)cc1 [Example 217, N-(7-(1H-indol-7-yl)-3-oxoisoindolin-4-yl)-4-fluorobenzamide]",2950 nM
16,"O=C(Nc1ccc(-c2cccc3[nH]cnc23)c2c1C(=O)NC2)c1ccc(F)cc1 [Example 218, N-(7-(1H-benzo[d]imidazol-4-yl)-3-oxoisoindolin-4-yl)-4-fluorobenzamide]",590 nM
17,"O=C(Nc1ccc(Cc2ccccc2)c2c1C(=O)NC2)c1ccc(F)cc1 [Example 219, N-(7-benzyl-3-oxoisoindolin-4-yl)-4-fluorobenzamide]",13900 nM
18,"COc1cccc(-c2ccc(NC(=O)c3ccco3)c3c2CN(C(=O)c2ccco2)C3=O)c1OC [Example 224, N-(7-(2,3-dimethoxyphenyl)-2-(furan-2-carbonyl)-3-oxoisoindolin-4-yl)furan-2-carboxamide]",1000 nM
19,"COc1cccc(-c2ccc(NC(=O)c3cccs3)c3c2CN(C(=O)c2cccs2)C3=O)c1OC [Example 225, N-(7-(2,3-dimethoxyphenyl)-3-oxo-2-(thiophene-2-carbonyl)isoindolin-4-yl)thiophene-2-carboxamide]",> 20000 nM
20,"O=C(Nc1ccc(F)cc1)Nc1ccc(-c2ccccc2)c2c1C(=O)NC2 [Example 226, 1-(4-Fluorophenyl)-3-(3-oxo-7-phenylisoindolin-4-yl)urea]",2500 nM
21,"O=C(Nc1ccccc1)Nc1ccc(-c2ccccc2)c2c1C(=O)NC2 [Example 227, 1-(3-Oxo-7-phenylisoindolin-4-yl)-3-phenylurea]",1200 nM
